In patent US6630075B2, “Use of fluorinated ketones in fire extinguishing compositions” (3M Innovative Properties Company, priority 1999, dated 2003):

What was measured:
[1] = Micro-Cup Burner Test (extinguishing concentration; Mass Ratio Calculation vs HALON 1211)
Excerpt: The Micro-Cup Burner Test is a laboratory test which measures the extinguishing ability of an agent based on the quantity of agent required to extinguish a fire under the following test conditions. The Micro-Cup Burner Test utilizes a quartz concentric-tube laminar-diffusion flame burner (micro-cup burner, of similar design to the above-described cup apparatus) aligned vertically with all flows upward. A fuel, typically propane unless otherwise specified, flows at 10.0 sccm (standard cubic centimeters per minute) through a 5-mm I.D. inner quartz tube which is centered in a 15-mm I.D. quartz chimney. The chimney extends 4.5 cm above the inner tube. Air flows through the annular region between the inner tube and the chimney at 1000 sccm. Prior to the addition of extinguishing composition, a visually stable flame is supported on top of the inner tube, and the resulting combustion products flow out through the chimney. An extinguishing composition to be evaluated is introduced into the air stream upstream of the burner. Liquid compositions are introduced by a syringe pump (which is calibrated to within 1%) and are volatilized in a heated trap. Gaseous compositions are introduced via a mass-flow controller to the air stream upstream from the burner. For consistency, the air-gaseous composition mixture then flows through the heated trap prior to its introduction to the flame burner. All gas flows are maintained by electronic mass-flow controllers which are calibrated to within 2%. The fuel is ignited to produce a flame and is allowed to burn for 90 seconds. After 90 seconds, a specific flow rate of composition is introduced, and the time required for the flame to be extinguished is recorded. The reported extinguishing concentrations are the recorded volume % of extinguishing composition in air required to extinguish the flame within an average time of 30 seconds or less.
The above-mentioned cup burner test measures the performance of an extinguishing composition by determining the minimum volume percent of composition in air required to extinguish a test fire. However, it is often desirable to directly compare the fire performance of an experimental extinguishing composition (e.g., a fluorinated ketone) against the performance of a state-of-the-art extinguishing composition, such as HALON™ 1211 fire extinguishing agent (CF2ClBr, a bromochlorofluorocarbon). One way to make such a comparison is to derive the mass ratio of experimental composition to HALON™ 1211 fire extinguishing agent from the volume percentages of each composition required for extinguishing. The mass ratio can be calculated by dividing the experimental composition's extinguishing volume percent by the HALON™ 1211 agent's extinguishing volume percent and multiplying the resulting quotient (which, according to the ideal gas law, also represents the ratio of mole percents) times the weight average molecular weight of the experimental composition divided by the molecular weight of HALON™ 1211 agent (165 g/mole).
In Comparative Example C1, the extinguishing concentration (volume % in air) of HALON™ 1211 fire extinguishing agent was determined as using the Micro-Cup Burner Test.
In Examples 1-16, the extinguishing concentration of several perfluorinated ketones was also determined using the Micro-Cup Burner Test. The mass ratio as compared to HALON™ 1211 fire extinguishing agent was then calculated using the Mass Ratio Calculation.
In Comparative Examples C2-C11, various fluorinated extinguishing compositions known in the art (hydrofluorocarbons, perfluorocarbons, hydrochlorofluorocarbons, hydrofluoroethers, and iodofluorocarbons) were evaluated for their extinguishing concentration, and subsequently their mass ratios were calculated with respect to HALON™ 1211 agent. […]

mice = assay: short term inhalation tests with mice; assay type: in vivo; conditions: mice exposed for four hours at 50,000 ppm in air
[2] = manual suppression full-scale streaming test, UL Standard 711 pan fires; conditions: heptane, 60 sec pre-burn
Excerpt: These two examples were run to illustrate the fire performance of a fluorinated ketone of this invention, CF3CF2C(O)CF(CF3)2 (the fluorinated ketone as prepared in Example 1), using a manual suppression full-scale streaming test for a clean extinguishing agent.
For each example, a standard off-the-shelf Amerex 131b HALON™ 1211 handheld extinguisher was used to introduce the extinguishing composition to the fire. The extinguisher was equipped with a standard ½ in (1.3 cm) nominal diameter rubber hose with a clean extinguishing agent nozzle attached to the end. In each case, the composition was super-pressurized using dry nitrogen at 130-150 psi (900-1040 kPa).
Both fire extinguishing tests were run following essentially the same test procedures and conditions as outlined in UL Standard 711 for the 2B and 5B pan fire scenarios, as normally conducted for UL approval at Underwriters Laboratories, Inc., Northbrook, Ill. The only deviation from that test procedure was that the fire tests for these examples were conducted outside. The fire test pans for the respective fires were sized to be 2.5 times larger than the ultimate extinguisher rating. For example, a 2B UL-rated extinguisher rating requires a skilled firefighter to be able to extinguish a 5 ft^2 (0.46 m^2) fire, a 5B UL-rated extinguisher rating requires extinguishing a 12.5 ft^2(1.16 m^2) fire, etc. For both examples, the UL specified pans were 12 in (30 cm) deep, into which was introduced 4.0 in (10 cm) of water, onto which was introduced 2 in (5 cm) of commercial grade heptane for fuel, leaving a 6 in (15 cm) freeboard above the fuel surface. Each fire was allowed to pre-burn 60 seconds before extinguishing commenced, using an agent flow rate of 0.75-0.80 kg/sec. The discharge time for the extinguishing of the fire was recorded as was the amount of agent discharged.

[3] = total flooding evaluation in 1.28 m^3 enclosure (Ohmic Heating Test procedure); conditions: 1000 g agent, nitrogen 50 psi
Excerpt: This example was run to evaluate the fire performance of a fluorinated ketone of this invention, CF3CF2C(O)CF(CF3)2 (the fluorinated ketone as prepared in Example 1), in a total flooding evaluation for a clean extinguishing agent.
For this evaluation, a 1.28 m^3 (0.915 m×0.915 m×1.525 m) steel reinforced polycarbonate “box” enclosure was used, into which a fixed piping system, normally designed to deliver a gaseous clean extinguishing agent, was filled instead with a composition that is liquid at room temperature and discharged into the “box” to extinguish a fire. Using this modified system and procedure, the liquid fluorinated ketone used, CF3CF2C(O)CF(CF3)2, could be discharged into the enclosure indirectly in the same manner as could a gaseous clean extinguishing agent and thus allow the liquid agent to extinguish an obstructed fire located remotely in the enclosure.
In this modified procedure, a Swagelok Whitey 2000 mL cylinder was filled with 1000 g of CF3CF2C(O)CF(CF3)2 and was super-pressurized with nitrogen to 50 psi (345 kPa). Attached to the bottom of the cylinder was a 0.25 in (0.6 cm) Swagelok Whitey SS1RFA-A stainless steel angle valve, to which was fixed 34 in (86.4 cm) of nominal 0.25 in (6.5 mm) piping arrangement, including a 0.25 in (6.5 mm) Jamesbury Clincher ¼-turn ball valve. The piping was connected to a Bete NF 0500 square edge orifice nozzle. […]

O=C(C(F)(F)C(F)(F)F)C(F)(C(F)(F)F)C(F)(F)F [Example 1, 1,1,1,2,4,4,5,5,5-nonafluoro-2-trifluoromethyl-butan-3-one]
Mass Ratio to HALON™ 1211 ([1]; calculated from extinguishing volume % and molecular weight relative to HALON 1211 (165 g/mole)): 1.86
Ext. Conc. (vol %) ([1]; volume % in air required to extinguish the flame within an average time of 30 seconds or less, propane fuel): 3.5 vol %
acute toxicity (mice): low acute toxicity
Agent Discharged ([2]; UL 2B pan): 2.59 kg
Discharge Time ([2]; UL 2B pan): 3.5 s
Agent Discharged ([2]; UL 5B pan): 2.87 kg
Discharge Time ([2]; UL 5B pan): 3.8 s
time to extinguishing of the obstructed fire from the beginning of agent discharge [3]: ≤ 35 s
